Assay results taken from paper PMC3505271 (Nature chemical biology, 2012).

Assays:
AnaPS = AnaPS (Aspergillus fischeri, UniProt A1DN09); assay: amino acid-dependent ATP-[…]PPi exchange; type: biochemical; settings: adenylation domain substrate; ATP co-substrate
TqaA = TqaA (Penicillium aethiopicum, UniProt F1CWE4); assay: amino acid-dependent ATP-[…]PPi exchange; type: biochemical; settings: adenylation domain substrate; ATP co-substrate

AnaPS, sequence (A1DN09 whole entry, the tested form may be a part): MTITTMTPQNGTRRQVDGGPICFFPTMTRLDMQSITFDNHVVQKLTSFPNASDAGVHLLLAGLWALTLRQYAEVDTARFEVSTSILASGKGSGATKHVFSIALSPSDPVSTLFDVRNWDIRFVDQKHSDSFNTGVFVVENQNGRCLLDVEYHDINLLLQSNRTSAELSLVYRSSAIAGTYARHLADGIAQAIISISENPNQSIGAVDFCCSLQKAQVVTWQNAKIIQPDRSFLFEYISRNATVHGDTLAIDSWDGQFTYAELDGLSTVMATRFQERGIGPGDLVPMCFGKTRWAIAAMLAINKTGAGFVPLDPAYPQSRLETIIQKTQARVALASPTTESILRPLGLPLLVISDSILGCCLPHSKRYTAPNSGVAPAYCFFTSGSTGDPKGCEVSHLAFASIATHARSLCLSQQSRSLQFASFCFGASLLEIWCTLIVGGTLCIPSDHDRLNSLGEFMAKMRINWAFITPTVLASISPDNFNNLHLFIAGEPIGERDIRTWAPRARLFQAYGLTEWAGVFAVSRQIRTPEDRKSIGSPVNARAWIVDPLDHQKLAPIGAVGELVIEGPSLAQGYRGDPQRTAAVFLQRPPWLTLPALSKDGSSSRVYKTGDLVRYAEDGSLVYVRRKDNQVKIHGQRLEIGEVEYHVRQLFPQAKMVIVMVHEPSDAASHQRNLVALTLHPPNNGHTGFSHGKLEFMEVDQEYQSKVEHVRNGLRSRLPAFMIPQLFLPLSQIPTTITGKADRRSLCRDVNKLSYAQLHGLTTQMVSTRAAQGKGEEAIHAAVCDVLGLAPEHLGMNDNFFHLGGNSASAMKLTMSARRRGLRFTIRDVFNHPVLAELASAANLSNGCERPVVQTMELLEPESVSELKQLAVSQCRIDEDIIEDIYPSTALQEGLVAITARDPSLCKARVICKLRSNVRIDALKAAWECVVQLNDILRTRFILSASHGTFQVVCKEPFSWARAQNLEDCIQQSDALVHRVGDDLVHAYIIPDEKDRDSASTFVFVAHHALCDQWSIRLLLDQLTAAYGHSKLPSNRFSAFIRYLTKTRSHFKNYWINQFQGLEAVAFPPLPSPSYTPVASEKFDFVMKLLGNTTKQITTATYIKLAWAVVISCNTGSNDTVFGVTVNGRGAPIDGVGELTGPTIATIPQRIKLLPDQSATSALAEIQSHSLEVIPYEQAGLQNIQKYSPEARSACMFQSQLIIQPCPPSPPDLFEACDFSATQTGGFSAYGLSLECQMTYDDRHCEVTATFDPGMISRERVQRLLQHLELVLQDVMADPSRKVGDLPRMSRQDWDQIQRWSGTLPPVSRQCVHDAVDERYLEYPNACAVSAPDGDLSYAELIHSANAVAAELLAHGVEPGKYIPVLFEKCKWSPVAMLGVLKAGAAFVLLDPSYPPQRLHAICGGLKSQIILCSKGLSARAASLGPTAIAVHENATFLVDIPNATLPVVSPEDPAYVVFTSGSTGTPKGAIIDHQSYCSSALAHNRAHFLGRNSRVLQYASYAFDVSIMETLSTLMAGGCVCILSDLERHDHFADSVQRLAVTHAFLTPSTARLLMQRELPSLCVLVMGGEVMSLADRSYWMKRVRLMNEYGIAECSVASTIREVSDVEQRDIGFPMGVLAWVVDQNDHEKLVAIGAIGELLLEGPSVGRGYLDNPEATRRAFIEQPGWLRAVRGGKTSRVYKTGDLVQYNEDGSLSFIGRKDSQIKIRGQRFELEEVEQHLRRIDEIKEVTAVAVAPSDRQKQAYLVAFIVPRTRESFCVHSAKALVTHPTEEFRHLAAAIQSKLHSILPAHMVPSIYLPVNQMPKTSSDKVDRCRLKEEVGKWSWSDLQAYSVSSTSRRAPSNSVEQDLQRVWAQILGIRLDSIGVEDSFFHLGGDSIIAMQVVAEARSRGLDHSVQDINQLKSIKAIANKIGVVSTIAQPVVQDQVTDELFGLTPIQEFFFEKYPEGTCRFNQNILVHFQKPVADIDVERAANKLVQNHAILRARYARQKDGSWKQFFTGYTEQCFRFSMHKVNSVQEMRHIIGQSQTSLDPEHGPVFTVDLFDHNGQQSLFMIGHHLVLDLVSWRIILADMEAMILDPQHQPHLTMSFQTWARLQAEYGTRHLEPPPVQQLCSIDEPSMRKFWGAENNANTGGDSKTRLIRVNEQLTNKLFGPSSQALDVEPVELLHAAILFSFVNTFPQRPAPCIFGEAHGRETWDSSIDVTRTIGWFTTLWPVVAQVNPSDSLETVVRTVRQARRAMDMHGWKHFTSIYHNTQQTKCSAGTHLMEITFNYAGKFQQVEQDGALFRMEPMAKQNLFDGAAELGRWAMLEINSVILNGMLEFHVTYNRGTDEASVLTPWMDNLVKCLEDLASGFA

Structure (SMILES)	amino acid-dependent ATP-[32P]PPi exchange (AnaPS)	amino acid-dependent ATP-[32P]PPi exchange (TqaA)
Nc1ccccc1C(=O)O [anthranilate]	Similarly, AnaPS A domains activated Ant and L-Trp	TqaA specifically activated the three building blocks Ant, L-Trp and L-Ala
N[C@@H](Cc1c[nH]c2ccccc12)C(=O)O [L-tryptophan]	Similarly, AnaPS A domains activated Ant and L-Trp	–
